Data set [1] deals with bean aphid (Aphis fabae Scop.). Nature of the data set: Bean Aphid Foliage Spray Test. It counts as in vivo. The following applies: Aphis fabae, foliar; Table II, side by side comparison; read-out: Aphids LD50. On the procedure: (§1) Suspensions of the test compounds were prepared by dissolving one gram of compound in 50 milliliters of acetone in which had been dissolved 0.1 gram (10 percent of the weight of compound) of an alkylphenoxy polyethoxyethanol surfactant, as an emulsifying or dispersing agent. The resulting solution was mixed into 150 milliliters of water to give roughly 200 milliliters of a suspension containing the compound in finely divided form. The thus-prepared stock suspension contained 0.5 percent by weight of compound. The test concentrations in parts per million by weight employed in the tests described hereinbelow were obtained by appropriate dilutions of the stock suspension with water. The test procedures were as follows:
Adults and nymphal stages of the bean aphid (Aphis fabae Scop.) reared on potted dwarf nasturtium plants at 65°-70° F. and 50-70 percent relative humidity, constituted the test insects. For testing purposes, the number of aphids per pot was standardized to 100-150 by trimming plants containing excess aphids.
The test compounds were formulated by diluting the stock suspension with water to give a suspension containing 500 parts of test compound per million parts of final formulation.
The potted plants (one pot per compound tested) infested with 100-150 aphids, were placed on a revolving turntable and sprayed with 100-110 milliliters of test compound formulation by use of a DeVilbiss spray gun set at 40 psig. air pressure. This application, which lasted 25 seconds, was sufficient to wet the plants to run-off. As a control, 100-110 milliliters of a water-acetone-emulsifier solution containing no test compound were also sprayed on infested plants. After spraying, the pots were placed on their sides on a sheet of white standard mimeograph paper which had been previously ruled to facilitate counting. Temperature and humidity in the test room during the 24 hour holding period were 65°-70° F. and 50-70 percent, respectively. Aphids which fell onto the paper and were unable to remain standing after being uprighted were considered dead. Aphids remaining on the plants were observed closely for movement and those which were unable to move the length of the body upon stimulation by prodding were considered dead. Percent mortality was recorded for various concentration levels.
(§2) In the tests described above, the pesticidal activity of the compounds against aphid, mite, Southern Armyworm, Bean Beetle, house fly and nematode was rated as follows:
(§3) Comparison tests were conducted to assess the biological and chemical properties of certain representative species of the claimed invention in relation to their corresponding N-methyl carbamate compositions. The test procedures described above were employed in these experiments in order to determine the LD50 (number of parts per million of active ingredients required to achieve fifty percent mortality of the insects tested) for each of the compositions tested. In the case of the aphid and mite tests a side by side comparison was made of the N-methyl carbamate composition versus the corresponding perhalomethylsulfenyl derivative.

The subject of data set [2] is two-spotted mite (Tetranychus urticae Koch). Nature of the data set: Mite Foliage Spray Test. It counts as in vivo. The conditions noted are these: Tetranychus urticae, foliar; Table II, side by side comparison; read-out: Mites Spray LD50. The protocol:
as §1
Adults and numphal stages of the two-spotted mite (Tetranychus urticae Koch), reared on Tendergreen bean plants at 80±5 percent relative humidity, were the test organisms. Infested leaves from a stock culture were placed on the primary leaves of two bean plants six to eight inches in height, growing in a 21/2 inch clay pot. 150 -200 Mites, a sufficient number for testing, transferred from the excised leaves to the fresh plants in a period of twenty-four hours. Following the twenty-four hour transfer period, the excised leaves were removed from the infested plants. The test compounds were formulated by diluting the stock suspension with water to give a suspension containing 500 parts of test compound per million parts of final formulation. The potted plants (one pot per compound) were placed on a revolving turntable and sprayed with 100-110 milliliters of test compound formulation by use of a DeVilbiss spray gun set at 40 psig. air pressure. This application, which lasted 25 seconds, was sufficient to wet the plants to run-off. As a control, 100-110 milliliters of a water solution containing acetone and emulsifier in the same concentrations as the test compound formulation, but containing no test compound, were also sprayed on infested plants. The sprayed plants were held at 80±5 percent relative humidity for six days, after which a mortality count of motile forms was made. Microscopic examination for motile forms was made on the leaves of the test plants. Any individual which was capable of locomotion upon prodding was considered living.
as §2, §3

For data set [3], the system named is southern armyworm (Prodenia eridania, (Cram.)). The experiment in a line: Southern Armyworm Leaf Spray Test. Format: in vivo. The following applies: Spodoptera eridania; Table II; read-out: Armyworm LD50. On the procedure: as §1
Larvae of the southern armyworm (Prodenia eridania, (Cram.)), reared on Tendergreen bean plants at a temperature of 80°±5° F. and a relative humidity of 50±5 percent, constituted the test insects.
The test compounds were formulated by diluting the stock suspension with water to give a suspension containing 500 parts of test compound per million parts of final formulation. Potted Tendergreen bean plants of standard height and age were placed on a revolving turntable and sprayed with 100-110 milliliters of test compound formulation by use of a DeVilbiss spray gun set at 10 psig air pressure. This application, which lasted 25 seconds, was sufficient to wet plants to run-off. As a control, 100-110 milliliters of a water-acetone-emulsifier solution containing no test compound were also sprayed on infested plants. When dry, the paired leaves were separated and each one was placed in a 9 centimeter Petri dish lined with moistened filter paper. Five randomly selected larvae were introduced into each dish and the dishes were closed. The closed dishes were labeled and held at 80-85° F. for three days. Although the larvae could easily consume the whole leaf within twenty-four hours, no more food was added. Larvae which were unable to move the length of the body, even upon stimulation by prodding, were considered dead. Percent mortality was recorded for various concentration levels.
as §2, §3

For data set [4], the system named is Mexican bean beetle (Epilachna varivestis, Muls.). Nature of the data set: Mexican Bean Beetle Leaf Spray Test. Format: in vivo. The following applies: Epilachna varivestis; Table II; read-out: Beetle LD50. On the procedure:
as §1
Fourth instar larvae of the Mexican bean beetle (Epilachna varivestis, Muls.), reared on Tendergreen bean plants at a temperature of 80°±5° F. and 50±5 percent relative humidity, were the test insects.
The test compounds were formulated by diluting the stock suspension with water to give a suspension containing 500 parts of test compound per million parts of final formulation. Potted Tendergreen bean plants of standard height and age were placed on a revolving turntable and sprayed with 100-110 milliliters of test compound formulation by use of a DeVilbiss spray gun set at 10 psig air pressure. This application, which lasted 25 seconds, was sufficient to wet plants to run-off. As a control, 100-110 milliliters of a water-acetone-emulsifier solution containing no test compound were also sprayed on infested plants. When dry, the paired leaves were separated and each was placed in a 9 centimeter Petri dish lined with moistened filter paper. Five randomly selected larvae were introduced into each dish, and the dishes were closed. The closed dishes were labeled and held at a temperature of 80°±5° F. for three days. Although the larvae could easily consume the leaf within 24 to 48 hours, no more food was added. Larvae which were unable to move the length of the body, even upon stimulation, were considered dead.
as §2, §3

Data set [5] has as its system house flies (Musca domestica, L.). The experiment in a line: Fly Bait Test. The following applies: Musca domestica; Table II; read-out: Housefly LD50. Format: in vivo. The protocol: as §1
Four to six day old adult house flies (Musca domestica, L.), reared according to the specifications of the Chemical Specialties Manufacturing Association (Blue Book, McNair-Dorland Co., N. Y. 1954; pages 243-244, 261) under controlled conditions of 80°±5° F. and 50±5 percent relative humidity, were the test insects. The flies were immobilized by anesthetizing with carbon dioxide and twenty-five immobilized individuals, males and females, were transferred to a cage consisting of a standard food strainer about five inches in diameter which was inverted over a wrapping-paper-covered surface. The test compounds were formulated by diluting the stock suspension with a 10 percent (by weight) sugar solution to give a suspension containing 500 parts of test compound per million parts of final formulation, by weight. Ten milliliters of the test formulation were added to a souffle cup containing a one-inch square of an absorbent cotton pad. This bait cup was introduced and centered on the blotting paper under the food strainer prior to admitting the anesthetized flies. The caged flies were allowed to feed on the bait for twenty-four hours, at a temperature of 80°±5° F. and the relative humidity of 50±5 percent.
as §2, §3

Data set [6] is described as follows: Peroral toxicity to mammals (rat). The following applies: in vivo, po, Table II. The protocol:
Certain of these compositions were also evaluated to determine their peroral toxicity to mammals. The animal selected for this experiment was the rat. The test results obtained are expressed in terms of the number of milligrams of composition per kilogram of weight of the animal required to achieve a mortality rate of 50 percent (LD50).

A short description of a further data set: Chemical stability. Format: physicochemical. The following applies: Table II.

≈ marks a conversion by molar mass, not a printed value.

By LD50 is commonly meant the dose at which mortality reaches 50%.

Regarding `CNC(=O)ON=CC(C)(C)C#N` [drawing 22 R=H, X=CN, reference compound], the LC50 in data set [1] was 12 µg/mL (≈ 70.9 µM); in data set [2] it was 40 µg/mL (≈ 236 µM); in data set [3], 55 µg/mL (≈ 325 µM); in data set [4] it was 65 µg/mL (≈ 384 µM); in data set [5], 3 µg/mL (≈ 17.7 µM). This compound gave an LD50 in data set [6] of 9.5 mg/kg. For the same compound, the Stability result in the data set “Chemical stability” is recorded as “unstable”.
As to `CNC(=O)ON=CC(C)(C)[N+](=O)[O-]` [drawing 22 R=H, X=NO2, reference compound], the LC50 in data set [1] was found to be 6 µg/mL (≈ 31.7 µM); in data set [2], 32 µg/mL (≈ 169 µM); in data set [3], 55 µg/mL (≈ 291 µM); in data set [4] it was 80 µg/mL (≈ 423 µM); in data set [5], 3 µg/mL (≈ 15.9 µM). This compound displayed an LD50 in data set [6] of 4 mg/kg. For the same compound, in the data set “Chemical stability”, the Stability result was “unstable”.
As for `CN(SC(F)(F)F)C(=O)ON=CC(C)(C)C#N` [drawing 22 R=SCF3, X=CN, 2-Methyl-2-cyanopropionaldehyde O-(N-methyl-N-trifluoromethanesulfenylcarbamoyl)oxime], the LC50 in data set [1] was determined as 38 µg/mL (≈ 141 µM); in data set [2], 90 µg/mL (≈ 334 µM); in data set [3], 300 µg/mL (≈ 1110 µM); in data set [4], 40 µg/mL (≈ 149 µM); in data set [5], 14 µg/mL (≈ 52 µM). Besides, the Stability entry in the data set “Chemical stability” was “stable”.
Consider `CNC(=O)ON=C(C)SCCC#N` [drawing 23 R=H, reference compound], for which the LC50 in data set [1] was determined as 8 µg/mL (≈ 39.8 µM); in data set [2] it was 8 µg/mL (≈ 39.8 µM); in data set [3] it was 5 µg/mL (≈ 24.8 µM); in data set [4], 25 µg/mL (≈ 124 µM); in data set [5] it was 2 µg/mL (≈ 9.94 µM). Besides, the LD50 in data set [6] stood at 7.7 mg/kg. In addition, in “Chemical stability”, the Stability result is listed as “stable”.

(Values after patent publication US4029688A, “Carbamic pesticidal compositions” (priority 1974, dated 1977).)
